Data published in ChEMBL document CHEMBL5120920, “A Mitochondria-Targeted Phenylbutyric Acid Prodrug Confers Drastically Improved Anticancer Activities” (J Med Chem, 2022).
Activity calls are given as the source filed them. No cut-off for these calls is given here.

Experiments:
A-375 [1] = assay: Induction of cell cycle arrest in human A-375 cells assessed as accumulation at G1 phase at 10 uM incubated for 24 hrs by PI staining based flow cytometry analysis (reference value: 68.07 %); type: functional
A-375 [2] = assay: Antiproliferative activity against human A-375 cells assessed as inhibition of cell viability incubated for 72 hrs by MTT assay; type: functional, cell-based; settings: A-375, 72 h
A549 = assay: Antiproliferative activity against human A549 cells assessed as inhibition of cell viability incubated for 72 hrs by MTT assay; type: functional, cell-based; settings: A549, 72 h
MCF7 = assay: Antiproliferative activity against human MCF7 cells assessed as inhibition of cell viability incubated for 72 hrs by MTT assay; type: functional, cell-based; settings: MCF7, 72 h
MDA-MB-231 = assay: Antiproliferative activity against human MDA-MB-231 cells assessed as inhibition of cell viability incubated for 72 hrs by MTT assay; type: functional, cell-based; settings: MDA-MB-231, 72 h
A-375 [3] = assay: Induction of cell cycle arrest in human A-375 cells assessed as accumulation at S phase at 10 uM incubated for 24 hrs by PI staining based flow cytometry analysis (reference value: 24.01 %); type: functional
A-375 [4] = assay: Induction of cell cycle arrest in human A-375 cells assessed as accumulation at G2 phase at 10 uM incubated for 24 hrs by PI staining based flow cytometry analysis (reference value: 7.92 %); type: functional
[5] = Apparent permeability across apical to basolateral side in human Caco-2 cells at 2 uM measured after 2 hrs by LC-MS/MS analysis; type: ADME, cell-based
[6] = Apparent permeability across basolateral to apical side in human Caco-2 cells at 2 uM measured after 2 hrs by LC-MS/MS analysis; type: ADME, cell-based
[7] = Efflux ratio of apparent permeability from basolateral to apical side over apical to basolateral side in human Caco2 cells by LC-MS/MS analysis; type: ADME, cell-based; settings: Caco-2
A-375 [8] = assay: Induction of cell cycle arrest in human A-375 cells assessed as accumulation at G1 phase at 10 mM incubated for 24 hrs by PI staining based flow cytometry analysis (reference value: 68.07 %); type: functional
A-375 [9] = assay: Induction of cell cycle arrest in human A-375 cells assessed as accumulation at S phase at 10 mM incubated for 24 hrs by PI staining based flow cytometry analysis (reference value: 24.01 %); type: functional
A-375 [10] = assay: Induction of cell cycle arrest in human A-375 cells assessed as accumulation at G2 phase at 10 mM incubated for 24 hrs by PI staining based flow cytometry analysis (reference value: 7.92 %); type: functional
A-375 [11] = assay: Inhibition of glycolysis in human A-375 cells assessed as reduction in extracellular acidification rate at 5 mM measured after 4 hrs; type: functional, cell-based
A-375 [12] = assay: Antitumor activity against human A-375 cells xenografted in nude mouse assessed as tumor inhibition ratio at 80 mg/kg, ip measured once every two days for 14 days; type: functional; settings: A-375, 336 h, time 14 day, read-out: TGI
A-375 [13] = assay: Effect on mitochondrial bio-energestics in human A-375 cells assessed as increase in OCR/ECRA ratio at 5 mM measured after 4 hrs; type: functional, cell-based
[14] = Cytotoxicity against HEK293T cells assessed as cell growth inhibition measured after 72 hrs by MTT assay; type: toxicity, cell-based, HEK-293T; settings: human
[15] = Cytotoxicity against human L02 cells assessed as cell growth inhibition measured after 72 hrs by MTT assay; type: toxicity, cell-based
[16] = Cytotoxicity against human HaCaT cells assessed as cell growth inhibition measured after 72 hrs by MTT assay; type: toxicity, cell-based
[17] = Cytotoxicity against HUVEC assessed as cell growth inhibition measured after 72 hrs by MTT assay; type: toxicity, cell-based; settings: human
[18] = Toxicity in BALB/c mouse assessed as change in body weight at 20 mg/kg, iv measured once every two days for 7 days; type: organism-based; settings: in vivo, 168 h, time 7 day
A-375 [19] = assay: Antitumor activity against human A-375 cells implanted in BALB/c mouse assessed as suppression of tumor growth at 20 mg/kg, ip measured once every two days for 14 days; type: functional, organism-based; settings: time 14.0 day
A-375 [20] = assay: Antitumor activity against human A-375 cells implanted in BALB/c mouse assessed as reduction in tumor weight at 20 mg/kg, ip measured once every two days for 14 days; type: functional, organism-based; settings: time 14.0 day
A-375 [21] = assay: Antitumor activity against human A-375 cells implanted in BALB/c mouse assessed as shrinkage of tumor tissue at 20 mg/kg, ip measured once every two days for 14 days; type: functional, organism-based; settings: time 14.0 day

SMILES	IC50 (A-375 [2]) [µM]	IC50 (A549) [µM]	IC50 (MCF7) [µM]	IC50 (MDA-MB-231) [µM]	other results
O=C(O)CCCCCCCCC[P+](c1ccc(C(F)(F)F)cc1)(c1ccc(C(F)(F)F)cc1)c1ccc(C(F)(F)F)cc1.[Br-]	> 20	> 20	> 20	> 20	Activity (A-375 [1]): 68.44%; Activity (A-375 [3]): 19.88%; Activity (A-375 [4]): 11.68%
O=C(O)CCCCC[P+](c1ccccc1)(c1ccccc1)c1ccccc1	> 20	> 20	> 20	> 20	
N#Cc1ccc([P+](CCCCCCCCCC(=O)NC(CNC(=O)CCCc2ccccc2)(CNC(=O)CCCc2ccccc2)CNC(=O)CCCc2ccccc2)(c2ccc(C#N)cc2)c2ccc(C#N)cc2)cc1	> 10	4.06	8.56	3.96	
O=C(CCCCC[P+](c1ccccc1)(c1ccccc1)c1ccccc1)NC(COC(=O)CCCc1ccccc1)(COC(=O)CCCc1ccccc1)COC(=O)CCCc1ccccc1	4.66	1.08	0.91	2.68	
O=C(O)CCCc1ccccc1	8940	9750	10700	11700	Papp A→B at 2 h, 2 µM [5]: < 0.48 ×10⁻⁶ cm/s; Papp B→A at 2 h, 2 µM [6]: 0.74 ×10⁻⁶ cm/s; efflux ratio [7]: > 1.54; Activity (A-375 [8]): 87.33%; Activity (A-375 [9]): 7.4%; Activity (A-375 [10]): 5.38%; inhibition (A-375 [11]): Active; inhibition in vivo at 80 mg/kg (A-375 [12]): 10%; Activity (A-375 [13]): Active
O=C(CCCc1ccccc1)NCC(CNC(=O)CCCc1ccccc1)(CNC(=O)CCCc1ccccc1)NC(=O)CC[P+](c1ccccc1)(c1ccccc1)c1ccccc1	5.05	5.3	3.34	9.64	
COC(=O)CCCc1ccccc1	> 2000				
N#Cc1ccc([P+](CCCCCCCCCC(=O)O)(c2ccc(C#N)cc2)c2ccc(C#N)cc2)cc1	> 20	> 20	> 20	> 20	
O=C(CCCc1ccccc1)NCC(CNC(=O)CCCc1ccccc1)(CNC(=O)CCCc1ccccc1)NC(=O)CCCCC[P+](c1ccccc1)(c1ccccc1)c1ccccc1	3.26	7.7	2.46	3.62	
O=C(CCCc1ccccc1)NCC(CNC(=O)CCCc1ccccc1)(CNC(=O)CCCc1ccccc1)NC(=O)CCC[P+](c1ccccc1)(c1ccccc1)c1ccccc1	4.56	624	2.72	9.27	
O=C(O)CCC[P+](c1ccccc1)(c1ccccc1)c1ccccc1	> 20	> 20	> 20	> 20	
O=C(CCCc1ccccc1)NCC(CNC(=O)CCCc1ccccc1)(CNC(=O)CCCc1ccccc1)NC(=O)CCCC[P+](c1ccccc1)(c1ccccc1)c1ccccc1	232	2.15	2.02	3.51	
O=C(O)CC[P+](c1ccccc1)(c1ccccc1)c1ccccc1	> 20	> 20	> 20	> 20	
O=C(O)CCCCCCCCC[P+](c1ccc(F)cc1)(c1ccc(F)cc1)c1ccc(F)cc1	> 20	> 20	> 20	> 20	
CCCS(=O)(=O)Nc1ccc(F)c(C(=O)c2c[nH]c3ncc(-c4ccc(Cl)cc4)cc23)c1F [VEMURAFENIB]					Activity [18]: Non-Toxic; Activity (A-375 [19]): Active; Activity (A-375 [20]): Active; Activity (A-375 [21]): Active
Cc1ccc([P+](CCCCCCCCCC(=O)O)(c2ccc(C)cc2)c2ccc(C)cc2)cc1	> 20	> 20	> 20	> 20	
COc1cccc([P+](CCCCCCCCCC(=O)O)(c2cccc(OC)c2)c2cccc(OC)c2)c1	> 20	> 20	> 20	> 20	
CCOC(=O)CCCc1ccccc1	> 2000				
O=C(O)CCCCCCC[P+](c1ccccc1)(c1ccccc1)c1ccccc1	> 20	> 20	> 20	> 20	
O=C(O)CCCCCCCCC[P+](c1ccccc1)(c1ccccc1)c1ccccc1	> 20	> 20	> 20	> 20	
O=C(O)CCCC[P+](c1ccccc1)(c1ccccc1)c1ccccc1	> 20	> 20	> 20	> 20	
O=C(CCCC[P+](c1ccccc1)(c1ccccc1)c1ccccc1)NC(COC(=O)CCCc1ccccc1)(COC(=O)CCCc1ccccc1)COC(=O)CCCc1ccccc1	2.79	1.03	0.64	1.57	
O=C(O)CCCCCCCCCCC[P+](c1ccccc1)(c1ccccc1)c1ccccc1	> 20	> 20	> 20	> 20	

The next lines start with results.

IC50 (A-375 [2]) [µM]	IC50 (A549) [µM]	IC50 (MCF7) [µM]	IC50 (MDA-MB-231) [µM]	SMILES	other results
1.29	2.19	2.26	1.28	O=C(CCCc1ccccc1)NCC(CNC(=O)CCCc1ccccc1)(CNC(=O)CCCc1ccccc1)NC(=O)CCCCCCCCC[P+](c1ccc(F)cc1)(c1ccc(F)cc1)c1ccc(F)cc1	
1.29	0.65	0.62	1.28	O=C(CCC[P+](c1ccccc1)(c1ccccc1)c1ccccc1)NC(COC(=O)CCCc1ccccc1)(COC(=O)CCCc1ccccc1)COC(=O)CCCc1ccccc1	
1.98	2.11	1.91	2.19	O=C(CCCc1ccccc1)NCC(CNC(=O)CCCc1ccccc1)(CNC(=O)CCCc1ccccc1)NC(=O)CCCCCCCCC[P+](c1ccc(C(F)(F)F)cc1)(c1ccc(C(F)(F)F)cc1)c1ccc(C(F)(F)F)cc1	IC50 at 72 h [14]: > 20 µM; IC50 at 72 h [15]: > 20 µM; IC50 at 72 h [16]: > 20 µM; IC50 at 72 h [17]: > 20 µM
0.36	0.57	0.44	0.24	O=C(CCCc1ccccc1)NCC(CNC(=O)CCCc1ccccc1)(CNC(=O)CCCc1ccccc1)NC(=O)CCCCCCCCCCC[P+](c1ccccc1)(c1ccccc1)c1ccccc1	
0.33	0.42	0.4	0.47	COc1cccc2c1C(=O)c1c(O)c3c(c(O)c1C2=O)C[C@@](O)(C(=O)CO)C[C@@H]3O[C@H]1C[C@H](N)[C@H](O)[C@H](C)O1 [DOXORUBICIN]	
0.66	0.97	0.79	0.57	COc1cccc([P+](CCCCCCCCCC(=O)NC(CNC(=O)CCCc2ccccc2)(CNC(=O)CCCc2ccccc2)CNC(=O)CCCc2ccccc2)(c2cccc(OC)c2)c2cccc(OC)c2)c1	
1.25	1.87	1.19	1.94	CN(C)c1ccc([P+](CCCCCCCCCC(=O)O)(c2ccc(N(C)C)cc2)c2ccc(N(C)C)cc2)cc1	
1.75	1.01	0.97	2.59	O=C(CC[P+](c1ccccc1)(c1ccccc1)c1ccccc1)NC(COC(=O)CCCc1ccccc1)(COC(=O)CCCc1ccccc1)COC(=O)CCCc1ccccc1	
0.42	0.81	0.54	0.31	O=C(CCCc1ccccc1)NCC(CNC(=O)CCCc1ccccc1)(CNC(=O)CCCc1ccccc1)NC(=O)CCCCCCCCC[P+](c1ccccc1)(c1ccccc1)c1ccccc1	
0.62	0.73	0.5	0.44	Cc1ccc([P+](CCCCCCCCCC(=O)NC(CNC(=O)CCCc2ccccc2)(CNC(=O)CCCc2ccccc2)CNC(=O)CCCc2ccccc2)(c2ccc(C)cc2)c2ccc(C)cc2)cc1	
1.19	1.42	1.31	0.59	O=C(CCCc1ccccc1)NCC(CNC(=O)CCCc1ccccc1)(CNC(=O)CCCc1ccccc1)NC(=O)CCCCCCC[P+](c1ccccc1)(c1ccccc1)c1ccccc1	
